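The compound was tested at five concentrations on cells cultured in 96-well plates, with a 48-hour exposure period. At the GI50, growth is halved. At the TGI there is no net growth.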
What was measured:
Test in all cases: NCI-60 cell line screen, 48 h
[1] = system: 786-0 renal
[2] = system: HOP-62 NSCLC
[3] = system: UACC-257 melanoma
[4] = system: NCI-H522 lung
[5] = system: U251 CNS
[6] = system: K-562 leukemia
[7] = system: OVCAR-3 ovarian
[8] = system: LOX IMVI melanoma
[9] = system: OVCAR-4 ovarian
[10] = system: MCF7 breast

Molecule `Cc1c(C(=O)CC(=O)C(=O)Nc2cc(Cl)ccc2Cl)[n+](=O)c2ccccc2n1[O-]` has a TGI [1] of over 100 µM, a TGI [2] of over 100 µM and a TGI [3] of over 100 µM. For the same molecule, the TGI [4] was 53.6 µM, the TGI [5] was over 100 µM and the TGI [6] was over 100 µM. It also gave a TGI [7] of 61 µM, a TGI [8] of 93.5 µM and a TGI [9] of over 100 µM.
Molecule `COC(=O)c1cc(-c2ccc(OC)cc2)[nH]c1N/N=C/c1c(Cl)cccc1Cl` has a GI50 [1] of 0.331 µM, a TGI [1] of 4.79 µM and a GI50 [2] of 0.275 µM. It also gave a TGI [2] of 4.71 µM, a GI50 [3] of 0.409 µM and a TGI [3] of 9.17 µM. It also gave a GI50 [4] of 0.0877 µM, a TGI [4] of 0.491 µM and a GI50 [5] of 0.292 µM. It also gave a TGI [5] of 1.82 µM, a GI50 [10] of 0.107 µM and a TGI [10] of 0.887 µM. It also gave a GI50 [6] of 0.144 µM, a TGI [6] of 6.65 µM and a GI50 [8] of 0.146 µM. It also gave a TGI [8] of 5.42 µM, a GI50 [9] of 0.659 µM and a TGI [9] of over 53.6 µM.
`Clc1ccc(-c2c(C3=NCCN3)nnn2-c2ccccc2)cc1` gave a TGI [1] of over 100 µM, a TGI [2] of over 100 µM and a TGI [3] of over 100 µM. For the same molecule, the TGI [4] was over 100 µM, the TGI [5] was over 100 µM and the TGI [6] was over 100 µM. The TGI [7] was over 100 µM, the TGI [8] was over 100 µM and the TGI [9] was over 100 µM.
`O=C1CCN2CCC(=O)c3c2c(cc2ccccc32)N1` was tested, and the TGI [1] was over 100 µM, the TGI [2] was over 100 µM and the TGI [3] was over 100 µM. It also gave a TGI [4] of over 100 µM, a TGI [5] of over 100 µM and a TGI [6] of over 100 µM. The TGI [7] was over 100 µM and the TGI [8] was over 100 µM.
Molecule `COc1ccc2ccccc2c1CN1CCOCCOCCN(Cc2c(OC)ccc3ccccc23)CCOCCOCC1` has a TGI [1] of over 46.4 µM, a TGI [2] of over 100 µM and a TGI [3] of 65.5 µM. The TGI [4] was over 89.8 µM, the TGI [5] was over 100 µM and the TGI [6] was over 100 µM. It also gave a TGI [7] of over 100 µM, a TGI [8] of over 100 µM and a TGI [9] of over 100 µM.
`CCCCCCCCCCCCCC(=O)NCC(OCC)OCC` gave a TGI [1] of over 100 µM, a TGI [2] of over 100 µM and a TGI [3] of over 100 µM. For the same molecule, the TGI [4] was over 100 µM, the TGI [5] was over 100 µM and the TGI [7] was over 100 µM. For the same molecule, the TGI [8] was over 100 µM and the TGI [9] was over 100 µM.
`CC(/C=C/NNC1=NC(c2ccccc2)C(c2ccccc2)=NN1)Sc1ccccc1N` (configuration not stated) was tested, and the TGI [1] was 13.6 µM, the TGI [2] was 33.7 µM and the TGI [3] was 19.9 µM. It also gave a TGI [4] of 11.7 µM, a TGI [5] of 8.39 µM and a TGI [6] of over 100 µM. The TGI [7] was 22 µM, the TGI [8] was 11.4 µM and the TGI [9] was 20 µM.
Molecule `Cc1cccc(N=C2NC(=O)C(CC(=O)Nc3ccc(C)cc3C)S2)c1` (configuration not stated) has a TGI [1] of over 100 µM, a TGI [3] of over 100 µM and a TGI [4] of over 100 µM. For the same molecule, the TGI [5] was over 100 µM, the TGI [6] was over 100 µM and the TGI [7] was over 100 µM. For the same molecule, the TGI [8] was over 100 µM and the TGI [9] was over 100 µM.
`CCOC(=O)C1=C(Nc2ccc(Cl)c(Cl)c2)OC/C1=N\NC(=O)Cc1ccccc1` was tested, and the TGI [1] was over 100 µM, the TGI [2] was over 100 µM and the TGI [3] was over 100 µM. It also gave a TGI [4] of over 100 µM, a TGI [5] of over 100 µM and a TGI [6] of over 100 µM. For the same molecule, the TGI [7] was over 100 µM, the TGI [8] was over 100 µM and the TGI [9] was over 100 µM.
`CC1(O)CCC2(C)C(=O)C1(C)CCC21OCCO1` (configuration not stated) gave a TGI [1] of over 100 µM, a TGI [3] of over 100 µM and a TGI [4] of over 100 µM. For the same molecule, the TGI [5] was over 100 µM, the TGI [6] was over 100 µM and the TGI [7] was over 100 µM.
Molecule `N#Cc1c(C[n+]2ccccc2)c2ccccc2oc1=O` has a TGI [1] of over 100 µM, a TGI [2] of over 100 µM and a TGI [3] of over 100 µM. For the same molecule, the TGI [4] was over 100 µM, the TGI [5] was over 100 µM and the TGI [6] was over 100 µM. It also gave a TGI [7] of over 100 µM, a TGI [8] of over 100 µM and a TGI [9] of over 100 µM.

Source: PubChem BioAssay (NCI)
